Results: article PMC4405029 (Bioorganic & medicinal chemistry letters, 2015)

How the values were obtained:
Experiment in all cases: Electrical cell-substrate impedance sensing
Type in all cases: cell-based
recombinant EP1 receptor = target: T1, recombinant EP1 receptor (Homo sapiens, UniProt P34995); conditions: ECIS, EP1 expressed in CHO cells
T1 sequence (P34995 1-402): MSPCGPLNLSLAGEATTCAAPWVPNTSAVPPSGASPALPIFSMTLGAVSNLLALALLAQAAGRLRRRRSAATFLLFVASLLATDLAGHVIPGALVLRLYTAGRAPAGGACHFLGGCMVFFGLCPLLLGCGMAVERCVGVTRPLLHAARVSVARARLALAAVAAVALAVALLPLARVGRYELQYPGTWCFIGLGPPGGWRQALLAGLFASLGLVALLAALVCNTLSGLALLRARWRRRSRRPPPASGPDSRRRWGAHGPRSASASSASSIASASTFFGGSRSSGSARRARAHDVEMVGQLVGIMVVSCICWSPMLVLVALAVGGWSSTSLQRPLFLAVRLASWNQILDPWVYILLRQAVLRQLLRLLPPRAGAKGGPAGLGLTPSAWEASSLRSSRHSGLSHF

recombinant EP3 receptor = target: T2, recombinant EP3 receptor (Homo sapiens, UniProt P43115); conditions: ECIS, EP3 expressed in CHO cells
T2 sequence (P43115 1-390): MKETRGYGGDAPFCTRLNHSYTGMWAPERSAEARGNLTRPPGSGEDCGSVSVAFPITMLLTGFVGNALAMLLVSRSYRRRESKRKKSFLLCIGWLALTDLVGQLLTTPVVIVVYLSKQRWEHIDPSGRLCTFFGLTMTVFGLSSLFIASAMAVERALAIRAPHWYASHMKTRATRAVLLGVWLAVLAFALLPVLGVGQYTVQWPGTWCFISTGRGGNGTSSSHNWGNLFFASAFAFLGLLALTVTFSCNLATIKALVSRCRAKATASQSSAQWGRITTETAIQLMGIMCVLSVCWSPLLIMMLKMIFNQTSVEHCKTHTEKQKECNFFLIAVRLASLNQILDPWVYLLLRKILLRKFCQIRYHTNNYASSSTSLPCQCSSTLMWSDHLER

recombinant EP4 receptor = conditions: ECIS, EP4 expressed in CHO cells

Row | Activation of EP1 receptor (cell impedance) (recombinant EP1 receptor) | Activation of EP3 receptor (cell impedance) (recombinant EP3 receptor) | SMILES | Activation of EP4 receptor (cell impedance) (recombinant EP4 receptor)
1 | did not activate | did not activate | CCCCC[C@H](O)/C=C/[C@H]1[C@H](O)CC(=O)[C@@H]1C/C=C\CCCC(=O)NCCO [PGE2-EA, prostaglandin-ethanolamide] | did not activate
2 | did not activate | did not activate | O=C(CCC/C=C\C[C@H]1C(=O)C[C@@H](O)[C@@H]1/C=C/[C@@H](O)CCc1ccccc1)NCCO [12a] | did not activate

Row | SMILES | Activation of EP1 receptor (cell impedance) (recombinant EP1 receptor) | Activation of EP3 receptor (cell impedance) (recombinant EP3 receptor) | Activation of EP4 receptor (cell impedance) (recombinant EP4 receptor)
3 | CCCCC[C@H](O)/C=C/[C@H]1[C@H](O)CC(=O)[C@@H]1C/C=C\CCCC(=O)O [PGE2] | rapid change in impedance | rapid change in impedance | rapid change in impedance
